# Source: patent US5200422A, “Benzimidazole derivatives, their preparation and use” (priority 1991, dated 1993)
# Where two headings read alike, the source gives them in different places.
# Experiments:
# Assay type in all cases: cell-based
# [1] = target: BKCa channel (Bos taurus, UniProt Q28204); assay: Patch-clamp, cultured bovine aortic smooth muscle cells
# Description: (§1) All experiments were performed with patch-clamp technique (Hamill et al., Pflugers Arch. 391, 85-100 (1981). The ion composition of the internal solution was (in mM) 4 NaCl, 140 KCl, 1 CaCl2, 1 MgCl2, 2 EGTA, 10 HEPES and the external solution contained 140 NaCl, 4 KCl, 2 CaCl2, 1 MgCl2 and 10 HEPES.
# [2] = tested on: BKCa channel; assay: Single channel experiments, inside-out patches of cerebellar granule cell membrane
# Description: as §1
# In inside-out patches of cerebellar granule cell membrane single BKCa channels were activated by for example 5-trifluoromethyl-1-(5-chloro-2-hydroxyphenyl)-1,3-dihydro-2H-benzimidazole-2-one (3-10 μM), 5-trifluoromethyl-I-(2-hydroxyphenyl)-1,3-dihydro-2H-benzimidazole-2-one ([…]), 5-trifluoromethyl-1-(5-phenyl-2-hydroxyphenyl)-1,3-dihydro-2H-benzimidazole-2-one (3-30 μM). […] No effect was found on the delayed rectifier K^+ channel or on the Cl^- channels also present in the patches.
# (§2) The BKCa channel in granule cells has been studied in symmetric 144 mM K^+, and under these conditions the average conductance is 154 pS (76 pS with 4 mM external K^+).
# [3] = tested on: N1E-115 neuroblastoma cells; assay: Whole cell recordings: membrane potential in current clamp mode; details: 30 μM to the bath
# Description: as §1
# The membrane potential of N1E-115 neuroblastoma cells was determined in whole-cell recordings using current clamp mode (HEKA EPC-9 patch-clamp amplifier) Due to the high-resistance seal and the large size of these cells, the recorded membrane potential stayed stable for periods of 30-60 min, although at somewhat depolarized values (-15--60 Mv).
# The equilibrium potentials for K^+, Cl^-, and Na^+ in these experiments were -90 mV, 0 mV, and +90 mV, respectively (cf. ion composition above) Thus, since potassium is the only ion having a reversal potential more negative than the resting membrane potential, the observed hyperpolarization induced by the test compound must be explained through an increased potassium conductance.
# [4] = tested on: 160-180 pS BKCa channel; assay: Patch-clamp, cultured guinea pig tracheal smooth muscle cells
# Description: as §1
# [5] = tested on: BKCa channel; assay: Outside-out patches of granule cells, channel block; details: silent periods interdispersed with periods of low or normal activity
# Description: as §1, §2
# Chain of BKCa channel (Bos taurus, UniProt Q28204) (Q28204 whole entry): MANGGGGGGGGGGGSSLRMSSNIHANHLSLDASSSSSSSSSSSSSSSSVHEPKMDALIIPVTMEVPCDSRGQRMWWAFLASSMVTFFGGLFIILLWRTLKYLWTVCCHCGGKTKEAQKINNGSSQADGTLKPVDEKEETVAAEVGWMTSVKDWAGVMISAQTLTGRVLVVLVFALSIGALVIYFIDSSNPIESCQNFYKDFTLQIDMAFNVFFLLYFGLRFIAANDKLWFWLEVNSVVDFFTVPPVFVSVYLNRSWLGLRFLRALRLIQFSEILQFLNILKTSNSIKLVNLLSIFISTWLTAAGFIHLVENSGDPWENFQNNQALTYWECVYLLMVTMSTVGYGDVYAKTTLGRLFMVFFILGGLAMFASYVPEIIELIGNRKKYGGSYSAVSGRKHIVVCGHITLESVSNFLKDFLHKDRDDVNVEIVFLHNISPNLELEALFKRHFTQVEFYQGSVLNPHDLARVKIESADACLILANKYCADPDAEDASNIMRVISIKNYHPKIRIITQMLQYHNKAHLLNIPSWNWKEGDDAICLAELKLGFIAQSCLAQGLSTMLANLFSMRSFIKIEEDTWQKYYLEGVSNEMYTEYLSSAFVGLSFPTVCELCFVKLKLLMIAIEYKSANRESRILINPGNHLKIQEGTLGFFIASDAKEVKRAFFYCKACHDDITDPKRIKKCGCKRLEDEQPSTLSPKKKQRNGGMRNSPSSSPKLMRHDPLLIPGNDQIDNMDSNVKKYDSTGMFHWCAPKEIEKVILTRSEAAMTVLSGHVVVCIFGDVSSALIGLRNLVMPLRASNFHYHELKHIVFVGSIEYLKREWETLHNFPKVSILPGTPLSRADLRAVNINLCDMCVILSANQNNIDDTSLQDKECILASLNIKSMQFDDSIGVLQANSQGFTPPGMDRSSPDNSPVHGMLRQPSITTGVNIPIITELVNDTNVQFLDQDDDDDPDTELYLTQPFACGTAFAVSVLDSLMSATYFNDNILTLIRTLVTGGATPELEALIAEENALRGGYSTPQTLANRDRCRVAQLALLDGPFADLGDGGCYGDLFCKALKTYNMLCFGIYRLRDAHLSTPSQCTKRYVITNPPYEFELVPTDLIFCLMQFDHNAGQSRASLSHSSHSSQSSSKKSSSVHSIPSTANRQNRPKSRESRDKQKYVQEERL
# Chain of BKCa channel (Bos taurus, UniProt Q28204) (Q28067 whole entry partner): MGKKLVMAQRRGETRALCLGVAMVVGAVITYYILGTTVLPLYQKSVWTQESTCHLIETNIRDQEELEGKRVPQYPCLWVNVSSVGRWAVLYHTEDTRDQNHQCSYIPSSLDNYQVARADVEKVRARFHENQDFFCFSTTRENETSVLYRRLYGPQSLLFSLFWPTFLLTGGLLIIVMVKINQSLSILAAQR
compound,measurement,setting,value
"Oc1ccccc1-n1c(=S)[nH]c2cc(C(F)(F)F)ccc21 [1,3-dihydro-1-(2-hydroxyphenyl)-5-trifluoromethyl-2H-benzimidazole-2-thion]",activation of the BKCa channel,[1]; 3-30 μM,significantly activated
"O=c1[nH]c2cc(C(F)(F)F)ccc2n1-c1cc2ccccc2cc1O [1,3-dihydro-1-(3-hydroxy-2-naphthyl)-5-trifluoromethyl-2H-benzimidazol-2-one]",activation of the BKCa channel,[1]; 3-30 μM,significantly activated
"O=c1[nH]c2cc(Cl)c(Cl)cc2n1-c1cc(Cl)ccc1O [1,3-dihydro-1-(5-chloro-2-hydroxyphenyl)-5,6-dichloro-2H-benzimidazole-2-one]",activation of the BKCa channel,[1]; 3-30 μM,significantly activated
"O=c1[nH]c2cc(C(F)(F)F)c([N+](=O)[O-])cc2n1-c1cc(Cl)cc([N+](=O)[O-])c1O [1,3-dihydro-1-(5-chloro-3-nitro-2-hydroxyphenyl)-5-trifluoromethyl-6-nitro-2H-benzimidazol-2-one]",activation of the BKCa channel,[1]; 1-3 μM,significantly activated
"O=c1[nH]c2cc(C(F)(F)F)ccc2n1-c1cc(-c2ccccc2)ccc1O [1,3-dihydro-1-(5-phenyl-2-hydroxyphenyl)-5-trifluoromethyl-2H-benzimidazol-2-one]",activation of single BKCa channels,[2]; 3-30 μM,activated
same,activation of the BKCa channel,[1]; 3-30 μM,significantly activated
"O=c1[nH]c2cc(C(F)(F)F)ccc2n1-c1cc(Cl)ccc1O [1-(5-chloro-2-hydroxyphenyl)-5-trifluoromethyl-1,3-dihydro-2H-benzimidazol-2-one]",delay before hyperpolarization of the cells,[3],1 to 3 min
same,average hyperpolarization,"[3]; current clamp, SD=-5 Mv, n=8",-14 Mv
same,activation of the BKCa channel,[4],potently activated
same,activation of single BKCa channels,[2]; 3-10 μM,activated
same,activation of the BKCa channel,[1]; 3-30 μM,significantly activated
"O=c1[nH]c2cc(C(F)(F)F)ccc2n1-c1ccccc1O [5-trifluoromethyl-1,3-dihydro-1-(2-hydroxyphenyl)-2H-benzimidazol-2-one]",activation of single BKCa channels,[2],activated
Charybdotoxin,block of the BKCa channel,[5],blocks the channel
